Where a SMILES comes first, the peptide text is derived from it. The star is where a group is joined. X1 = NC(=O)C12CC3CC(CC(N*)(C3)C1)C2
Columns and labels:
Ts65Dn mice = test: General examination and monthly body weight, adult mice and mothers; type: in vivo
Source text: We treated 2–3-month-old pregnant Ts65Dn (Dn) and wild-type (WT) mothers from day 8 (E8) of pregnancy till the weaning of the pups on PND21 with compound P021 (P) in the feed, or as control with vehicle (V) feed (Fig. 1). The offsprings also had access to the P021 or vehicle diet as per mother’s group till PND21. The offsprings from Ts65Dn mothers were genotyped to identify Ts65Dn and WT pups. There were 6 study groups as follows: WT offsprings of WT mothers on vehicle diet (WT-V-WT), WT offsprings of WT mothers on P021 diet (WT-P-WT), WT offsprings of Ts65Dn mothers on vehicle diet (Dn-V-WT), WT offsprings of Ts65Dn mothers on P021 diet (Dn-P-WT), Ts65Dn offsprings of Ts65Dn mothers on vehicle diet (Dn-V-Dn), and Ts65Dn offsprings of Ts65Dn mothers on P021 diet (Dn-P-Dn). In the first phase of the study (Fig. 1b), the newborn pups were evaluated for neurobehavioral development starting on PND1 and carried out until PND21 (or until the appearance of developmental milestone/reflex). After completion of behavioral testing, the 3-week-old mice were sacrificed and brain tissue was collected. The neurobehavioral development component of the study was performed on WT-V-WT (n = 11), WT-P-WT (n = 10), Dn-V-WT (n = 10), Dn-P-WT (n = 9), Dn-V-Dn (n = 11), and Dn-P-Dn (n = 12) mice. In the second phase of the study (Fig. 1c), after prenatal to early postnatal treatment, the offsprings were allowed to grow till 5 months of age, and then general behavioral evaluation and cognitive testing were performed. After weaning, the offsprings received regular mouse chow. After completion of behavioral testing, ~7-month-old animals were sacrificed and brain tissue was collected for biochemical analyses. This longitudinal component of the study was carried out on WT-V-WT (n = 10), WT-P-WT (n = 12), Dn-V-WT (n = 12), Dn-P-WT (n = 11), Dn-V-Dn (n = 13), and Dn-P-Dn (n = 12) mice.
For both the neurobehavioral development in mouse pups and the longitudinal adult mice studies, the physical state and condition of the animals (both mothers and offsprings) were carefully examined throughout the respective study duration. Body weight of mouse pups was recorded daily from PND1 to PND21. Body weight of adult mice was evaluated monthly. Adult mice were not subjected to any behavioral testing till they were ~5 months of age.

3xTg-AD mice = details: concluded from hippocampal pSTAT3 decrease after oral P021 in diet; cited from earlier work
[1] = test system: STAT3 phosphorylation at Tyr705; test: Western blot of pSTAT3 (Tyr705) in hippocampus of 3-week-old offspring (placental/lactational and BBB delivery); type: in vivo, WT and Ts65Dn mice; details: inferred from reduced hippocampal pSTAT3 in 3-week-old offspring; 200 nmoles/g diet to dams E8-PND21
Protocol: The studies regarding the plasma stability and stability in gastric and intestinal juices of P021 were done at EVER NeuroPharma GmbH, Unterach, Austria[67]. Briefly, the compound P021 was found stable both in artificial gastric juice (>90%) and in artificial intestinal juice (>95%) as analyzed up to 30 min and 2 hours, respectively. […] It is also worth mentioning that young mice may have consumed some P021 diet directly as young mice start consuming solid food by ~PND16.
After completion of behavioral testing, the 3-week-old mice from the neurobehavioral development study and the ~7-month-old mice from the longitudinal study were anesthetized with an overdose of sodium pentobarbital (125 mg/kg) and were transcardially perfused with 0.1 M phosphate buffered saline (PBS). The mouse brains were extracted immediately after perfusion. The left hemisphere of the brain was dissected into hippocampus, cerebral cortex, cerebellum, and brain stem, immediately frozen on dry ice, and then stored at −80 °C till further processing for biochemical analysis.
The hippocampus from left cerebral hemisphere stored at −80 °C from each mouse was homogenized in a Teflon-glass homogenizer to obtain 10% (w/v) homogenate. […] The blots were developed and quantified as described before. For quantification of different protein levels, each immunoreactive band was normalized to its corresponding GAPDH band.

[2] = cited from earlier work
Source text: The compound P021 exerts a neurogenic and neurotrophic effect by inhibiting leukemia inhibitory factor (LIF) signaling pathway and enhancing brain derived neurotrophic factor (BDNF) expression by increasing its transcription.

[3] = done at EVER NeuroPharma GmbH, cited from earlier work
Protocol: The studies regarding the plasma stability and stability in gastric and intestinal juices of P021 were done at EVER NeuroPharma GmbH, Unterach, Austria[67]. Briefly, the compound P021 was found stable both in artificial gastric juice (>90%) and in artificial intestinal juice (>95%) as analyzed up to 30 min and 2 hours, respectively.

[4] = adult C57Bl/6 mice, commercial service APREDICA; cited from earlier work
[5] = administration in clinical trials, humans; cited from earlier work
Source text: Overall, we observed a significant group effect in body weight [Fig. 7a; 2-way ANOVA, F(5,410) = 14.28, p < 0.0001] and its change with age [F(4,410) = 100.25, p < 0.0001], however, group × age interaction was not significant [F(20,410) = 0.10, p = 1.0]. Bonferroni’s p ...

| Molecule | general behavioral profile of the adult mice (Ts65Dn mice; adult offspring treated E8-PND21) | body weight, adult Ts65Dn mice (Ts65Dn mice; monthly evaluation, Dn-V-Dn vs. Dn-P-Dn, p > 0.05, treated E8-PND21) | body weight, adult WT mice (Ts65Dn mice; monthly evaluation, WT-V-WT vs. WT-P-WT and Dn-V-WT vs. Dn-P-WT, p > 0.05) | general physical condition of treated mothers (Ts65Dn mice; pregnant mothers on P021 diet, evaluated up to 2-3 months after weaning the pups) | oral bioavailability (3xTg-AD mice) | placental/lactational delivery to offspring brain [1] | water solubility [2] | stable in artificial gastric juice ([3]; analyzed up to 30 min) [%] | stable in artificial intestinal juice ([3]; analyzed up to 2 hours) [%] | BBB permeability [4] | adverse effects in clinical trials [5] |
| --- | --- | --- | --- | --- | --- | --- | --- | --- | --- | --- | --- |
| CC(=O)N[C@@H](CC(=O)O)C(=O)NCC(=O)NCC(=O)N[C@@H](CC(C)C)C(=O)NC12CC3CC(C1)CC(C(N)=O)(C3)C2 [Peptide P021] (Ac-DGGL-X1) | did not affect the general behavioral profile | did not induce any significant changes in body weight | did not produce any alterations in body weight | did not show any treatment-induced alteration in their general physical condition | orally bioavailable | delivered across placental barrier during pregnancy and via breast milk during lactation | water-soluble | > 90 | > 95 | BBB-permeable | – |
| full-length human recombinant CNTF protein: full-length human recombinant ciliary neurotrophic factor protein given in clinical trials (protein, UniProt P26441 1-200, looked up, full-length) MAFTEHSPLTPHRRDLCSRSIWLARKIRSDLTALTESYVKHQGLNKNINLDSADGMPVASTDQWSELTEAERLQENLQAYRTFHVLLARLLEDQQVHFTPTEGDFHQAIHTLLLQVAAFAYQIEELMILLEYKIPRNEADGMPINVGDGGLFEKKLWGLKVLQELSQWTVRSIHDLRFISSHQTGIPARGSHYIANNKKM | – | – | – | – | – | – | – | – | – | – | anorexia, skeletal muscle loss, hyperalgesia, severe cramps, and muscle pain |
